“Also recorded” adds a separate entry of the source. *1 amine or outer side, *2 acyl side, *3 side chain or, on linkers, in order; H or OH if unused. Where a SMILES comes first, the peptide text is derived from it. Primed or numbered codes have the meaning given here. [ ]: non-standard residue; d: D form. The star is where a group is joined. aIle′ = Ile with backbone amide N-amino (hydrazide NNH2), CC[C@H](C)[C@@H](C(=O)[*:2])N(N)[*:1]; aVal = Val with backbone amide N-amino (hydrazide NNH2), CC(C)[C@@H](C(=O)[*:2])N(N)[*:1]; X2 = NN([C@@H](Cc1ccc(O)cc1)C(=O)[*:2])[*:1]; X1 = CC[C@H](C)[C@@H](C(=O)[*:2])N(N)[*:1]; N(NH2)LysNH2 = NCCCC[C@@H](C(N)=O)N(N)*; X3 = CC(C)[C@@H](C(=O)[*:2])N(N)[*:1]
Key:
tauP301L [1] = target: T1, tauP301L (Homo sapiens, UniProt P10636, P618L); test: Transmission electron microscopy of heparin-induced tauP301L fibrils; format: biochemical; details: 10 μM tauP301L + heparin, 20 μM NAP (2-fold molar excess), 96 h
T1 construct: we expressed and purified full-length tau featuring a P301L mutation; His6 (N); made in house; host or cells: E. coli BL21 (DE3)
T1 sequence (P10636 1-383 isoform P10636-6 P243L): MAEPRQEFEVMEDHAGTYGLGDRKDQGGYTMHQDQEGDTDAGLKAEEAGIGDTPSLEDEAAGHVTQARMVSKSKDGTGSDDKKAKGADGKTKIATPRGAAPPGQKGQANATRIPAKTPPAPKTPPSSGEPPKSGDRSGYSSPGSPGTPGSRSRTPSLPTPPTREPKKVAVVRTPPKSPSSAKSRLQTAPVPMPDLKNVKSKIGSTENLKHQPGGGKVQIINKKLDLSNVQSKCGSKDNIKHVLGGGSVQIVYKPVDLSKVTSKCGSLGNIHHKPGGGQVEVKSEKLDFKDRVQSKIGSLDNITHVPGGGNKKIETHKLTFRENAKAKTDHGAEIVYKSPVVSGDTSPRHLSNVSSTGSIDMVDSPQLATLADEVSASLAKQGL
Experimental: This is consistent with previous reports showing that the endpoint ThT fluorescence and fibrilization lag time for full-length tau are particularly resistant to perturbation by inhibitors. […] To confirm the effect of NAPs on the growth of mature tau fibrils, we used transmission electron microscopy (TEM) to visualize the morphology and maturity of fibrillar species. Heparin-induced tauP301L fibrils were allowed to grow over 96 h in the presence or absence of inhibitors. Untreated tauP301L afforded large, helical, and amyloid-like filamentous fibrils.
Inhibition of full-length tau fibrilization by mxyl-NAPs in TEM. To confirm the results from ThT assays, we used TEM to visualize tauP301L fibrils in the absence or presence of synthesized NAPs. As expected, heparin-induced tauP301L formed dense networks of mature fibrils (FIG. 8).
Transmission Electron Microscopy. For analyzing fibrils by TEM, aggregation was carried out under conditions similar to the assay performed above but with ThT excluded and a final reaction volume of 100 μL. Samples were incubated in a microcentrifuge tube for 4 days at 37° C. with a mixing speed of 100 rpm. A 10 μL aliquot of the sample was then applied to 400-meshed formvar-/carbon-coated copper grids and negative-stained with 2% uranyl acetate. Micrographs were obtained on a JEOL 2011 transmission electron microscope at 200 kV.

tauP301L [2] = target: T1, tauP301L; test: Cellular seeding assay, monomeric tauP301L co-incubated with inhibitor, HEK293 tau-RD(LM)-YFP biosensor cells; format: cell-based; details: 0.19 μM monomeric tauP301L + heparin co-incubated 4 days, cells 48 h
Excerpt: Di-N-aminated Hexapeptides Block the Cellular Transmission of Tau Fibrils. […] This mode of propagation is important for the spread of NFTs, neuropil threads, and plaque-associated neurites—all of which contribute to the progression of Alzheimer's disease. To test whether NAP inhibitors are able to block the seeding activity of recombinant tauP301L, we employed HEK293 biosensor cells that stably express a tau-yellow fluorescent protein fusion [tau-RD(LM)-YFP]. When we treated these cells with preformed heparin-induced fibrils of tauP301L, we observed a large number of intracellular tau aggregates, as indicated by punctate fluorescence after 48 h.
Mxyl-NAPs inhibit the seeding capacity of full-length tau in a biosensor cell assay. The ability to halt the prion-like spread of tau fibrils from diseased to healthy cells using designed molecules remains a considerable challenge. […] To test whether mxyl-NAPs could block this seeding activity, we treated HEK293 biosensor cells that express a tau yellow fluorescent protein fusion (tau-RD[LM]-YFP) with tauP301L incubated in the presence or absence of inhibitors. Heparin-induced fibrils of tauP301L grown in the absence of mxyl-NAPs led to strong intracellular FRET signal resulting from endogenous tau-RD(LM)-YFP aggregation. Quantitative brightness threshold-based analysis of puncta within the biosensor cells provided a positive baseline for seed-competent recombinant tau fibrils.
Cellular Seeding Assay. The tauP301L was diluted to a final concentration of […] in an aggregation buffer containing 100 mM sodium acetate, 10 μM heparin, and 2 mM DTT, pH: 7.4. The protein was incubated in a microcentrifuge tube for 4 days at 37° C. with a shaking speed of 100 rpm. Control vials included those wherein (1) buffer was added in place of tauP301L and (2) buffer was added in place of heparin.
For each experiment, cells were plated at a density of 15,000 cells/well in 96-well tissue culture plates.
For seeding by monomeric tau, freshly purified recombinant tauP301L was co-incubated with heparin and NAPs for 4 days in an aggregation buffer at 37° C. (see the above section). Following incubation, the reaction mixture was diluted in the low-serum Opti-MEM medium, mixed with Lipofectamine 2000 in a 20:1 ratio (complex/Lipofectamine) and allowed to incubate for an additional 20 min at rt. A mixture of 0.19 μM tau+1.9 μM or 0.009 μM inhibitors (final concentrations) was added to the cells. Cells were incubated for an additional 48 h before taking measurements on a BioTek Cytation 5 cell imager and a microplate reader. 10×10 pictures/well were taken at 20× magnification under an FITC channel, and the punctate counting was carried out using built-in software. […] Every experiment included control wells (no tau, no heparin, and no NAP). All data plots were generated with SigmaPlot. Error bars shown are standard deviation from technical replicates.

[3] = Self-aggregation of peptides alone by ThT fluorescence; format: physicochemical; details: incubated alone in aq. NaOAc buffer, 48 h
Excerpt: NAP Tau Mimics Inhibit Tau Fibrilization In Vitro. We chose thioflavin T (ThT), an amyloid specific fluorescent dye that binds to β-sheet assemblies, to first evaluate the effect of NAPs on recombinant tau aggregation. For these studies, we expressed and purified full-length tau featuring a P301L mutation frequently observed in patients with frontotemporal dementia and Parkinsonism linked to chromosome 17 (FTDP-17). This missense mutation leads to local structure destabilization around the amyloid-forming region resulting in faster aggregation. Recombinant tauP301L aggregated in the presence of equimolar heparin sulfate (t1/2=6.5±0.4 h) starting with a very short 0.5 h lag phase, followed by a 24 h exponential growth phase. […] Compounds 2 and 4 are mono- and diaminated hexapeptides derived from the R2 PHF6* aggregation-prone sequence, whereas compounds 5, 6, 12, and 13 are all derived from the R3 PHF6 sequence. Several other NAPs had no effect on endpoint ThT fluorescence or lacked consistent inhibition across repeated experiments. […] NaOAc buffer, as evidenced by intense ThT fluorescence after 48 h (FIG. 1B).
Design and synthesis of aggregation-resistant backbone-aminated derivatives of mxyl-AD. The data above support the hypothesis that mxyl-AD mimetic macrocycle can engage in native-like hydrophobic cross-b interactions as well as edge-to-edge H-bonds along the fibril axis. We next sought to employ mxyl-AD as a template for the design of tau seeding inhibitors that could potentially cap fibril growth and block propagation. This required us to incorporate a chemical modification onto mxyl-AD that would preclude its ability to self-assemble without disrupting its capacity to adopt the conformation required to bind tau. We therefore designed two backbone N-amino peptide (NAP) derivatives of our tau mimic, mxyl-NAP1 and mxyl-NAP2 (Scheme 1). Each of these analogues features a backbone amide substitution that precludes canonical b-sheet H-bonding along one edge of the macrocycle, while leaving the other edge intact to engage the tau protein. […] Both mxyl-NAP1 and mxyl-NAP2, which feature a single backbone N-amino group within the amyloidogenic PHF6 module, were prepared on solid support starting from Fmoc-protected N-amino dipeptides.

In the case of CC[C@H](C)[C@@H](C(=O)N[C@H](C(=O)N(N)[C@@H](Cc1ccc(O)cc1)C(=O)N[C@@H](CCCCN)C(N)=O)C(C)C)N(N)C(=O)[C@H](CCC(N)=O)NC(=O)[C@@H](NC(C)=O)C(C)C [Compound 12, Ac-Val-Gln-aIle-Val-aTyr-Lys-NH2] (Ac-VQ[X1]V[X2]K-NH2), the “tauP301L fibril morphology by TEM” value (tauP301L [1]) is reported as “particularly effective at attenuating fibril growth; also recorded: non-fibrillary amorphous aggregates similar to control”, the “seeding capacity of tauP301L (intracellular puncta)” value (from here on “seeding capacity of tauP301L”) (tauP301L [2]; 0.009 μM inhibitor) is reported as “less pronounced” and the “seeding capacity of tauP301L” value (tauP301L [2]; 1.9 μM inhibitor) is reported as “significantly reduced seeding capacity; also recorded: sufficient to prevent seeding”. For the same molecule, the “self-aggregation, ThT fluorescence of peptide alone” value (shortened to “self-aggregation, ThT fluorescence”) [3] was “no such fluorescence”.
In the case of CC[C@H](C)[C@H](NC(=O)[C@H](CCC(N)=O)NC(=O)[C@@H](NC(C)=O)C(C)C)C(=O)N(N)[C@H](C(=O)N[C@@H](Cc1ccc(O)cc1)C(=O)N(N)[C@@H](CCCCN)C(N)=O)C(C)C [Compound 13, Ac-Val-Gln-Ile-aVal-Tyr-aLys-NH2] (Ac-VQI[X3]Y-{N(NH2)LysNH2}), the “tauP301L fibril morphology by TEM” value (tauP301L [1]) is reported as “particularly effective at attenuating fibril growth; also recorded: non-fibrillary amorphous aggregates similar to control”, the “seeding capacity of tauP301L” value (tauP301L [2]; 0.009 μM inhibitor) is reported as “less pronounced” and the “seeding capacity of tauP301L” value (tauP301L [2]; 1.9 μM inhibitor) is reported as “significantly reduced seeding capacity; also recorded: sufficient to prevent seeding”. For the same molecule, the “self-aggregation, ThT fluorescence” value [3] was “no such fluorescence”.
With “Ac-aVal-Gln-aIle-Ile-Asn-Lys-NH2 (Ac-[aVal]Q[aIle′]INK-NH2; SMILES CC[C@H](C)[C@H](NC(=O)[C@H]([C@@H](C)CC)N(N)C(=O)[C@H](CCC(N)=O)NC(=O)[C@H](C(C)C)N(N)C(C)=O)C(=O)N[C@@H](CC(N)=O)C(=O)N[C@@H](CCCCN)C(N)=O) [Compound 4]” the “tauP301L fibril morphology by TEM” value (tauP301L [1]) was “particularly effective at attenuating fibril growth; also recorded: non-fibrillary amorphous aggregates similar to control”, the “seeding capacity of tauP301L” value (tauP301L [2]; 0.009 μM inhibitor) was “far weaker anti-seeding activity” and the “seeding capacity of tauP301L” value (tauP301L [2]; 1.9 μM inhibitor) was “far weaker anti-seeding activity; also recorded: ineffective”. The “self-aggregation, ThT fluorescence” value [3] was “no such fluorescence”.

Source: patent US20230399361A1, “MACROCYCLIC PEPTIDES” (UNIVERSITY OF NOTRE DAME DU LAC, priority 2022, published 2023)
